These results are taken from the Kinase Knowledgebase extract (Sharma et al. 2016).

Each structure is given as a SMILES string.

The target in this test is CDK2 (human) (UniProt P24941). The test can be described thus: Enzyme Assay.
One may read the IC50 as the concentration that inhibits the measured activity by half. As to `Cc1cc(N2CCN(C)CC2)ccc1NC(=O)c1ccc(C(=O)Nc2ccc(-n3cncn3)cc2)s1`, the IC50 was at most 1 µM.

For the compound `Cc1ccnc(NC(=O)c2ccc(C(=O)Nc3ccc(-n4cncn4)cc3)s2)c1`, the 50% inhibitory concentration (IC50) was at least 40 µM. Under `COc1ccc(NCc2ccc(C(=O)Nc3ccc(-n4cncn4)cc3)o2)c(C)c1` stands at least 40 µM; under `Cc1cc(Cn2ccnc2)ccc1NC(=O)c1ccc(C(=O)Nc2ccc(-n3cncn3)c(F)c2)s1`, at most 1 µM. `COc1ccc(NC(=O)c2ccc(C(=O)Nc3ccc(N4CCN(C)CC4)cc3)s2)c(C)c1` returned a 50% inhibitory concentration (IC50) of at least 40 µM. Under `COc1ccc(NC(=O)c2ccc(C(=O)Nc3ccc(-n4cncn4)c(F)c3)s2)c(C)c1` stands at most 1 µM; under `COc1ccc(C(=O)Nc2ccc(C(=O)Nc3ccc(-n4cncn4)cc3)s2)c(C)c1`, at most 1 µM; under `O=C(NCC1CCCCC1)c1ccc(C(=O)Nc2ccc(-n3cncn3)cc2)s1`, at least 40 µM. For `O=C(Nc1ccc(-n2cncn2)c(F)c1)c1ccc(C(=O)Nc2ccccc2COc2ccccc2)s1` the value was at least 40 µM; for `O=C(Nc1ccc(Cl)cc1)c1ccc(C(=O)Nc2ccc(-n3cncn3)cc2)s1`, 1 to 40 µM; for `Cc1cc(OCCN2CCOCC2)ccc1NC(=O)c1ccc(C(=O)Nc2ccc(-n3cncn3)cc2)s1`, at most 1 µM. Under `O=C(Nc1ccc(-n2cncn2)cc1)c1ccc(C(=O)Nc2cc(-c3ccco3)n[nH]2)s1` stands at least 40 µM; under `O=C(Nc1ccc(-n2cncn2)cc1)c1ccc(C(=O)N2CCc3ccccc3C2)s1`, 1 to 40 µM.

The compound `COc1ccc(NC(=O)c2ccc(C(=O)Nc3ccc(-n4cncn4)c(F)c3)o2)c(C)c1` came in with a half-maximal inhibitory concentration (IC50) of at most 1 µM. For `Cc1cc(NCCN(C)C)ccc1NC(=O)c1ccc(C(=O)Nc2ccc(-n3cncn3)cc2)s1` the value was 1 to 40 µM; for `O=C(NC[C@@H]1CCNC1)c1ccc(C(=O)Nc2ccc(-n3cncn3)cc2)s1`, at least 40 µM. Compound `O=C(NCCc1cccnc1)c1ccc(C(=O)Nc2ccc(-n3cncn3)cc2)s1` had a 50% inhibitory concentration (IC50) of 1 to 40 µM. For `Cc1cc(CN(C)C)ccc1NC(=O)c1ccc(C(=O)Nc2ccc(-n3cncn3)cc2)s1` the value was 1 to 40 µM; for `COc1ccc(NC(=O)c2ccc(C(=O)Nc3ccc(Cn4ccnc4)cc3)s2)c(C)c1`, at least 40 µM; for `O=C(Nc1ccc(-n2cncn2)cc1)c1ccc(C(=O)Nc2cccc(O)c2)s1`, at least 40 µM.

`O=C(Nc1ccc(-n2cncn2)cc1)c1ccc(C(=O)NC2Cc3ccccc3C2)s1` gave a half-inhibitory concentration (IC50) of at least 40 µM. Under `Cc1cccc(NC(=O)c2ccc(C(=O)Nc3ccc(-n4cncn4)cc3)s2)n1` stands at least 40 µM; under `O=C(NCc1cccnc1)c1ccc(C(=O)Nc2ccc(-n3cncn3)cc2)s1`, at least 40 µM. `CN(C(=O)c1ccc(C(=O)Nc2ccc(-n3cncn3)c(F)c2)o1)C1CCCCC1` gave an IC50 of at least 40 µM. On to `O=C(Nc1ccc(-n2cncn2)cc1)c1ccc(C(=O)NC2CCC2)s1`, for which the half-maximal inhibitory concentration (IC50) was at least 40 µM. In turn, `O=C(Nc1ccc(-n2cncn2)c(F)c1)c1ccc(C(=O)Nc2ccccc2C(F)(F)F)s1` returned an IC50 of 1 to 40 µM. Under `COc1ccc(NC(=O)c2ccc(C(=O)Nc3ccc4c(cnn4C)c3)s2)c(C)c1` stands at least 40 µM; under `O=C(Nc1ccc(-n2cncn2)cc1)c1ccc(C(=O)N2CCCC(c3ccccc3)C2)s1` (stereo not given), at least 40 µM; under `COc1ccccc1NC(=O)c1ccc(C(=O)Nc2ccc(-n3cncn3)cc2)s1`, at least 40 µM. The compound `O=C(NCc1ccccn1)c1ccc(C(=O)Nc2ccc(-n3cncn3)cc2)s1` had an IC50 of at least 40 µM. For `Cc1ccccc1C(=O)Nc1ccc(C(=O)Nc2ccc(-n3cncn3)cc2)o1` the value was at least 40 µM.

With `COc1ccccc1NC(=O)c1ccc(C(=O)Nc2ccc(-n3cncn3)c(F)c2)s1`, the 50% inhibitory concentration (IC50) is at least 40 µM. `CCCCN(C)C(=O)c1ccc(C(=O)Nc2ccc(-n3cncn3)cc2)s1` yielded a concentration for half-maximal inhibition (IC50) of at least 40 µM. In turn, `Cc1cc(OCCO)ccc1NC(=O)c1ccc(C(=O)Nc2ccc(-n3cncn3)cc2)s1` registered a half-inhibitory concentration (IC50) of at most 1 µM.

In the case of `COc1ccc(NC(=O)c2ccc(C(=O)Nc3ccc4nc(C)ccc4c3)s2)c(C)c1`, the IC50 is at least 40 µM.
